# Laboratory results reported in US6469028B1, “Synthesis and use of retinoid compounds having negative hormone and/or anatgonist activities” (Allergan, Inc., priority 1995, dated 2002).
# Experiments:
# Assay in all cases: Holoreceptor transactivation assay
# Assay type in all cases: cell-based
# Set-up in all cases: expressed in transfected cells; host or cells: CV1 cells
# [1] = target: T1, RARα (Homo sapiens, UniProt P10276); settings: relative to all trans retinoic acid; read-out: Transactivation Assay Efficacy (% of RA activity) RARα
# T1 sequence (P10276 1-462): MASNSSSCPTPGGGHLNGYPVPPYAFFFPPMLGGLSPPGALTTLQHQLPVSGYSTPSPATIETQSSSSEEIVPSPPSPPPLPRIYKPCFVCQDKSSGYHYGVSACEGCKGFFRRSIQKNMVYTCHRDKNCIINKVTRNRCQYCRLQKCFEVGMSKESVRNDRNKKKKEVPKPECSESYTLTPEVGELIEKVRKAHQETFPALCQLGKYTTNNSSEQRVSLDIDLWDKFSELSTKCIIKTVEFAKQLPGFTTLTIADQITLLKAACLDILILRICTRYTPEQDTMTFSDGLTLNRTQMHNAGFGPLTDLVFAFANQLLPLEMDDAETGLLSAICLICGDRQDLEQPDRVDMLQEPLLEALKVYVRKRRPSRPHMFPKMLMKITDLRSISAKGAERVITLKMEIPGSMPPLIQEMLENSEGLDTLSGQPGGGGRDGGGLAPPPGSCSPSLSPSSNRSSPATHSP
# Excerpt: (§1) A holoreceptor transactivation assay and a ligand binding assay which measure the antagonist/agonist like activity of the compounds of the invention, or their ability to bind to the several retinoid receptor subtypes, respectively, are described in published PCT Application No. WO93/11755 (particularly on pages 30-33 and 37-41) published on Jun. 24, 1993, the specification of which is also incorporated herein by reference. A description of the holoreceptor transactivation assay is also provided below.
# (§2) CV1 cells (5,000 cells/well) were transfected with an RAR reporter plasmid MTV-TREp-LUC (50 ng) along with one of the RAR expression vectors (10 ng) in an automated 96-well format by the calcium phosphate procedure of Heyman et al. Cell 68: 397-406. For RXR-α and RXR-γ transactivation assays, an RXR-responsive reporter plasmid CRBPII-tk-LUC (50 ng) along with the appropriate RXR expression vectors (10 ng) was used substantially as described by Heyman et al. above, and Allegretto et al. J. Biol. Chem. 268: 26625-26633. For RXR-β transactivation assays, an RXR-responsive reporter plasmid CPRE-tk-LUC ([…]) along with RXR-β expression vector ([…]) was used as described in above. These reporters contain DRI elements from human CRBPII and certain DRI elements from promotor, respectively (see Mangelsdorf et al. The Retinoids: Biology Chemistry and Medicine, pp. 319-349, Raven Press Ltd., New York and Heyman et al., cited above). A β-galactosidase (50 ng) expression vector was used as an internal control in the transfections to normalize for variations in transfection efficiency. The cells were transfected in triplicate for 6 hours, followed by incubation with retinoids for 36 hours, and the extracts were assayed for luciferase and […] activities. The detailed experimental procedure for holoreceptor transactivations has been described in Heyman et al. above, and Allegretto et al. cited above. The results obtained in this assay are expressed in EC50 numbers, as they are also in the chimeric receptor transactivation assay. The Heyman et al. Cell 68: 397-406, Allegretto et al. J. Biol. Chem. 268: 26625-26633, and Mangelsdorf et al. The Retinoids: Biology, Chemistry, and Medicine, pp. 319-349, Raven Press Ltd., New York, are expressly incorporated herein by reference. The results of ligand binding assay are expressed in Kd numbers. (See Cheng et al. Biochemical Pharmacology 22: 3099-3108, expressly incorporated herein by reference.)
# (§3) A compound should not cause significant activation of a reporter gene through a given receptor subtype (RAR-α, RAR-β or RAR-γ) in the holoreceptor transactivation assay, in order to qualify as an RAR antagonist with utility in the present invention.
# [2] = target: T2, RARγ (Homo sapiens, UniProt P13631); settings: relative to all trans retinoic acid; read-out: Transactivation Assay Efficacy (% of RA activity) RARγ
# T2 sequence (P13631 1-454): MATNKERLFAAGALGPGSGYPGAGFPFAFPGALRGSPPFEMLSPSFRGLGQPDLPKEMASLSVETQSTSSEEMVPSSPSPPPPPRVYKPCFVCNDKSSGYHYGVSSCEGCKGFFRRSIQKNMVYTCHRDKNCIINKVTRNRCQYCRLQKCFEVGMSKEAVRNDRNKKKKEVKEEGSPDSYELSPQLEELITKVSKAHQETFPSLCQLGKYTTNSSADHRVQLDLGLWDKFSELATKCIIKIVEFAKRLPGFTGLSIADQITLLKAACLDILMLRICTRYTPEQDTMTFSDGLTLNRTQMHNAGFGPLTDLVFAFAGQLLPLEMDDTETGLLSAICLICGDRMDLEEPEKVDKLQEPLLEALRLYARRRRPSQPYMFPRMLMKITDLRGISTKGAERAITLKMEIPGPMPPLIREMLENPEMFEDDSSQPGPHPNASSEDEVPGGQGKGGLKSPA
# Excerpt: as §1, §2, §3
# [3] = target: T3, RARβ (Homo sapiens, UniProt P10826); settings: relative to all trans retinoic acid; read-out: Transactivation Assay Efficacy (% of RA activity) RARβ
# T3 sequence (P10826 1-448 isoform P10826-2): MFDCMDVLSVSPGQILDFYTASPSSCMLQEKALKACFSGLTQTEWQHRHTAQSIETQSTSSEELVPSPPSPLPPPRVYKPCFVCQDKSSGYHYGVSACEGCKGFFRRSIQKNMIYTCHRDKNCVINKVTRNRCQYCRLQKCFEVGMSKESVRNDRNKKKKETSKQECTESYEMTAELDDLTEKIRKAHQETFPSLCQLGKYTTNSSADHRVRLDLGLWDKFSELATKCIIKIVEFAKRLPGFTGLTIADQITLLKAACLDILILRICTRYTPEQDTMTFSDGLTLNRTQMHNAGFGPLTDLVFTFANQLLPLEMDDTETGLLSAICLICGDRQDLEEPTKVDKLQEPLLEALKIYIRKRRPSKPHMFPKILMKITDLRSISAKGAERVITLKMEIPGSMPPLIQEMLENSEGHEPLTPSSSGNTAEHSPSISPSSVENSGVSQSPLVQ
# Excerpt: as §1, §2, §3
Emax [1],Emax [2],Emax [3],SMILES
4%,0%,1%,"Cc1ccc(C2=CCC(C)(C)c3ccc(C#Cc4ccc(C(=O)O)cc4)cc32)cn1 [Compound 18, 4-[(5,6-Dihydro-5,5-dimethyl-8-(2-methyl-5-pyridyl)-2-naphthalenyl)ethynyl]benzoic acid]"
0%,3%,5%,"CC1(C)CC=C(c2ccccn2)c2cc(C#Cc3ccc(C(=O)O)cc3)ccc21 [Compound 19, 4-[(5,6-Dihydro-5,5-dimethyl-8-(2-pyridyl)-2-naphthalenyl)ethynyl]benzoic acid]"
3%,0%,4%,"Cc1cccc(C2=CCC(C)(C)c3ccc(C#Cc4ccc(C(=O)O)cc4)cc32)c1 [Compound 20, 4-[(5,6-Dihydro-5,5-dimethyl-8-(3-methylphenyl)-2-naphthalenyl)ethynyl]benzoic acid]"
2%,2%,2%,"CCc1ccc(C2=CCC(C)(C)c3ccc(C#Cc4ccc(C(=O)O)cc4)cc32)cc1 [Compound 21, 4-[(5,6-Dihydro-5,5-dimethyl-8-(4-ethylphenyl)-2-naphthalenyl)ethynyl]benzoic acid]"
0%,2%,0%,"COc1ccc(C2=CCC(C)(C)c3ccc(C#Cc4ccc(C(=O)O)cc4)cc32)cc1 [Compound 22, 4-[(5,6-Dihydro-5,5-dimethyl-8-(4-methoxyphenyl)-2-naphthalenyl)ethynyl]benzoic acid]"
0%,3%,6%,"CC1(C)CC=C(c2ccc(C(F)(F)F)cc2)c2cc(C#Cc3ccc(C(=O)O)cc3)ccc21 [Compound 23, 4-[(5,6-Dihydro-5,5-dimethyl-8-(4-trifluoromethylphenyl)-2-naphthalenyl)ethynyl]benzoic acid]"
3%,4%,7%,"Cc1cc(C)cc(C2=CCC(C)(C)c3ccc(C#Cc4ccc(C(=O)O)cc4)cc32)c1 [Compound 24, 4-[(5 6-Dihydro-5,5-dimethyl-8-(3,5-dimethylphenyl)-2-naphthalenyl)ethynyl]benzoic acid]"
2%,3%,3%,"CC1(C)CC=C(c2ccc(Cl)cc2)c2cc(C#Cc3ccc(C(=O)O)cc3)ccc21 [Compound 25, 4-[(5,6-Dihydro-5,5-dimethyl-8-(4-chlorophenyl)-2-naphthalenyl)ethynyl]benzoic acid]"
1%,0%,6%,"CC1(C)CC=C(c2cccnc2)c2cc(C#Cc3ccc(C(=O)O)cc3)ccc21 [Compound 26, 4-[(5,6-Dihydro-5,5-dimethyl-8-(3-pyridyl)-2-naphthalenyl)ethynyl]benzoic acid]"
9%,6%,14%,"Cc1ccccc1C1=CCC(C)(C)c2ccc(C#Cc3ccc(C(=O)O)cc3)cc21 [Compound 27, 4-[(5,6-Dihydro-5,5-dimethyl-8-(2-methylphenyl)-2-naphthalenyl)ethynyl]benzoic acid]"
2%,2%,10%,"CC1(C)CC=C(c2cccc(O)c2)c2cc(C#Cc3ccc(C(=O)O)cc3)ccc21 [Compound 28, 4-[(5,6-Dihydro5,5-dimethyl-8-(3-hydroxyphenyl)-2-naphthalenyl)ethynyl]benzoic acid]"
0%,11%,6%,"CC1(C)CC=C(c2ccc(O)cc2)c2cc(C#Cc3ccc(C(=O)O)cc3)ccc21 [Compound 29, 4-[(5,6-Dihydro-5,5-dimethyl-8-(4-hydroxyphenyl)-2-naphthalenyl)ethynyl]benzoic acid]"
3%,1%,5%,"Cc1cnc(C2=CCC(C)(C)c3ccc(C#Cc4ccc(C(=O)O)cc4)cc32)s1 [Compound 30, 4-[(5,6-Dihydro-5,5-dimethyl-8-(5-methylthiazol-2-yl)-2-naphthalenyl)ethynyl]benzoic acid]"
4%,2%,14%,"Cc1csc(C2=CCC(C)(C)c3ccc(C#Cc4ccc(C(=O)O)cc4)cc32)n1 [Compound 31, 4-[(5,6-Dihydro-5,5-dimethyl-8-(4-methylthiazol-2-yl)-2-naphthalenyl)ethynyl]benzoic acid]"
0%,2%,2%,Cc1nc(C2=CCC(C)(C)c3ccc(C#Cc4ccc(C(=O)O)cc4)cc32)sc1C [Compound 32]
3%,2%,5%,"Cc1ccc(C2=CCC(C)(C)c3ccc(C#Cc4ccc(C(=O)O)cc4)cc32)s1 [Compound 34, 4-[(5,6-Dihydro-5,5-dimethyl-8-(5-methyl-2-thienyl)-2-naphthalenyl)ethynyl]benzoic acid]"
1%,0%,5%,"Cc1ccc(C2=CCC(C)(C)c3ccc(C(=O)Nc4ccc(C(=O)O)cc4)cc32)cc1 [Compound 36, 4-[[(5,6-Dihydro-5,5-dimethyl-8-(4-methylphenyl)-2-naphthalenyl)carbonyl]amino]-benzoic acid]"
1%,9%,7%,"Cc1ccc(C2=CCC(C)(C)c3ccc(C(=O)Oc4ccc(C(=O)O)cc4)cc32)cc1 [Compound 39, 4-[[(5,6-Dihydro-5,5-dimethyl-8-(4-methylphenyl)-2-naphthalenyl)carbonyl]oxy]-benzoic acid]"
3%,6%,5%,"Cc1ccc(C2=CCC(C)(C)c3ccc(C(=O)Nc4ccc(C(=O)O)c(F)c4)cc32)cc1 [Compound 41, 2-Fluoro-4-[[(5,6-dihydro-5,5-dimethyl-8-(4methylphenyl)-2-naphthalenyl)carbonyl]amino]-benzoic acid]"
